Test results published in PubChem BioAssay (NCI).
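Compound exposure: 48 hours, 5 concentrations, 96-well plates. TGI: concentration producing complete growth inhibition.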

How the values were obtained:
Assay in all cases: inhibition of tumour cell growth, NCI panel, 48 h
SK-OV-3 ovarian = test system: SK-OV-3 ovarian
HOP-62 NSCLC = test system: HOP-62 NSCLC
SN12C renal = test system: SN12C renal
SF-268 CNS = test system: SF-268 CNS
OVCAR-3 ovarian = test system: OVCAR-3 ovarian
UACC-257 melanoma = test system: UACC-257 melanoma
K-562 leukemia = test system: K-562 leukemia
MALME-3M melanoma = test system: MALME-3M melanoma
HL-60(TB) leukemia = test system: HL-60(TB) leukemia
DU-145 prostate = test system: DU-145 prostate
ACHN renal = test system: ACHN renal
786-0 renal = test system: 786-0 renal
NCI-H522 lung = test system: NCI-H522 lung
SK-MEL-5 melanoma = test system: SK-MEL-5 melanoma
SK-MEL-2 melanoma = test system: SK-MEL-2 melanoma
IGROV1 ovarian = test system: IGROV1 ovarian
NCI-H460 lung = test system: NCI-H460 lung
NCI-H226 lung = test system: NCI-H226 lung
HCC-2998 colon = test system: HCC-2998 colon
SK-MEL-28 melanoma = test system: SK-MEL-28 melanoma
SNB-75 CNS = test system: SNB-75 CNS
KM12 colon = test system: KM12 colon
RXF 393 renal = test system: RXF 393 renal
HCT-116 colon = test system: HCT-116 colon
A498 renal = test system: A498 renal
HCT-15 colon = test system: HCT-15 colon
T-47D breast = test system: T-47D breast
MDA-N = test system: MDA-N
MCF7 breast = test system: MCF7 breast
UACC-62 melanoma = test system: UACC-62 melanoma
U251 CNS = test system: U251 CNS
BT-549 breast = test system: BT-549 breast
A549 NSCLC = test system: A549 NSCLC
SW-620 colon = test system: SW-620 colon
NCI-H23 lung = test system: NCI-H23 lung
HOP-92 NSCLC = test system: HOP-92 NSCLC
CCRF-CEM leukemia = test system: CCRF-CEM leukemia
NCI/ADR-RES ovarian = test system: NCI/ADR-RES ovarian
OVCAR-5 ovarian = test system: OVCAR-5 ovarian
EKVX NSCLC = test system: EKVX NSCLC
HS 578T breast = test system: HS 578T breast
SF-295 CNS = test system: SF-295 CNS
TK-10 renal = test system: TK-10 renal
SF-539 CNS = test system: SF-539 CNS
OVCAR-8 ovarian = test system: OVCAR-8 ovarian
PC-3 prostate = test system: PC-3 prostate
MDA-MB-231 breast = test system: MDA-MB-231 breast
LOX IMVI melanoma = test system: LOX IMVI melanoma
CAKI-1 renal = test system: CAKI-1 renal
MDA-MB-435 = test system: MDA-MB-435
M14 melanoma = test system: M14 melanoma
OVCAR-4 ovarian = test system: OVCAR-4 ovarian
RPMI-8226 leukemia = test system: RPMI-8226 leukemia
HT29 colon = test system: HT29 colon
UO-31 renal = test system: UO-31 renal
SNB-19 CNS = test system: SNB-19 CNS
SR leukemia = test system: SR leukemia
MOLT-4 leukemia = test system: MOLT-4 leukemia

Work on `COc1ccc2c(c1)c1nn(CCN3CCCCC3)c3ccc4c(=O)n(CCN(C)C)c(=O)n2c4c13` yielded a TGI (SK-OV-3 ovarian) of 2910 nM, a TGI (HOP-62 NSCLC) of 38.4 nM and a TGI (SN12C renal) of 98.4 nM. It also gave a TGI (SF-268 CNS) of 76.6 nM, a TGI (OVCAR-3 ovarian) of 344 nM and a TGI (UACC-257 melanoma) of 885 nM. It also gave a TGI (K-562 leukemia) of 600 nM, a TGI (MALME-3M melanoma) of 351 nM and a TGI (HL-60(TB) leukemia) of 511 nM. For the same molecule, the TGI (DU-145 prostate) was 132 nM, the TGI (ACHN renal) was 243 nM and the TGI (786-0 renal) was 59 nM. It also gave a TGI (NCI-H522 lung) of less than 34.1 nM, a TGI (SK-MEL-5 melanoma) of 283 nM and a TGI (SK-MEL-2 melanoma) of 271 nM. For the same molecule, the TGI (IGROV1 ovarian) was less than 17.4 nM, the TGI (NCI-H460 lung) was less than 21.6 nM and the TGI (NCI-H226 lung) was 243 nM. The TGI (HCC-2998 colon) was 30 nM, the TGI (SK-MEL-28 melanoma) was 596 nM and the TGI (SNB-75 CNS) was 71.1 nM. The TGI (KM12 colon) was 80.1 nM, the TGI (RXF 393 renal) was less than 37.4 nM and the TGI (HCT-116 colon) was 21.3 nM. For the same molecule, the TGI (A498 renal) was 119 nM, the TGI (HCT-15 colon) was 82.5 nM and the TGI (T-47D breast) was 454 nM. For the same molecule, the TGI (MDA-N) was 117 nM, the TGI (MCF7 breast) was less than 50.4 nM and the TGI (UACC-62 melanoma) was 197 nM. It also gave a TGI (U251 CNS) of 111 nM, a TGI (BT-549 breast) of 1080 nM and a TGI (A549 NSCLC) of 49.7 nM. For the same molecule, the TGI (SW-620 colon) was 75.1 nM, the TGI (NCI-H23 lung) was 627 nM and the TGI (HOP-92 NSCLC) was 901 nM. The TGI (CCRF-CEM leukemia) was 785 nM, the TGI (NCI/ADR-RES ovarian) was 1910 nM and the TGI (OVCAR-5 ovarian) was 126 nM. The TGI (EKVX NSCLC) was 40.6 nM, the TGI (HS 578T breast) was 412 nM and the TGI (SF-295 CNS) was less than 19.2 nM. The TGI (TK-10 renal) was 440 nM, the TGI (SF-539 CNS) was 975 nM and the TGI (OVCAR-8 ovarian) was 300 nM. It also gave a TGI (PC-3 prostate) of 603 nM, a TGI (MDA-MB-231 breast) of 126 nM and a TGI (LOX IMVI melanoma) of 178 nM. The TGI (CAKI-1 renal) was 375 nM, the TGI (MDA-MB-435) was 88 nM and the TGI (M14 melanoma) was 109 nM. For the same molecule, the TGI (OVCAR-4 ovarian) was 15.8 nM, the TGI (RPMI-8226 leukemia) was 86.2 nM and the TGI (HT29 colon) was 96.3 nM. The TGI (UO-31 renal) was 354 nM and the TGI (SNB-19 CNS) was 532 nM.
Molecule `Cc1ccc2c(C(=O)c3c(C)n(CCN4CCOCC4)c4ccccc34)cccc2c1` has a TGI (SK-OV-3 ovarian) of 61000 nM, a TGI (HOP-62 NSCLC) of 99600 nM and a TGI (SN12C renal) greater than 100000 nM. For the same molecule, the TGI (SF-268 CNS) was 33800 nM, the TGI (OVCAR-3 ovarian) was 12400 nM and the TGI (UACC-257 melanoma) was 69400 nM. It also gave a TGI (K-562 leukemia) greater than 100000 nM, a TGI (MALME-3M melanoma) of 37600 nM and a TGI (HL-60(TB) leukemia) of 10400 nM. The TGI (DU-145 prostate) was 94300 nM, the TGI (ACHN renal) was 88400 nM and the TGI (786-0 renal) was 49000 nM. It also gave a TGI (NCI-H522 lung) of 29300 nM, a TGI (SK-MEL-5 melanoma) of 13000 nM and a TGI (SK-MEL-2 melanoma) of 42400 nM. For the same molecule, the TGI (IGROV1 ovarian) was greater than 100000 nM, the TGI (NCI-H460 lung) was 89300 nM and the TGI (NCI-H226 lung) was 19900 nM. It also gave a TGI (SK-MEL-28 melanoma) greater than 100000 nM, a TGI (SR leukemia) greater than 100000 nM and a TGI (KM12 colon) of 57700 nM. It also gave a TGI (RXF 393 renal) of 54600 nM, a TGI (HCT-116 colon) of 40900 nM and a TGI (A498 renal) greater than 100000 nM. For the same molecule, the TGI (HCT-15 colon) was 35400 nM, the TGI (T-47D breast) was greater than 100000 nM and the TGI (MDA-N) was 84800 nM. The TGI (MCF7 breast) was 16800 nM, the TGI (UACC-62 melanoma) was 45200 nM and the TGI (U251 CNS) was 41000 nM. The TGI (BT-549 breast) was 51600 nM, the TGI (A549 NSCLC) was greater than 100000 nM and the TGI (MOLT-4 leukemia) was 36300 nM. For the same molecule, the TGI (SW-620 colon) was 16500 nM, the TGI (NCI-H23 lung) was greater than 100000 nM and the TGI (HOP-92 NSCLC) was 73100 nM. It also gave a TGI (CCRF-CEM leukemia) of 13000 nM, a TGI (NCI/ADR-RES ovarian) of 43100 nM and a TGI (OVCAR-5 ovarian) of 96600 nM. It also gave a TGI (EKVX NSCLC) of 63300 nM, a TGI (HS 578T breast) of 25600 nM and a TGI (SF-295 CNS) of 37100 nM. It also gave a TGI (TK-10 renal) of 55600 nM, a TGI (SF-539 CNS) of 12800 nM and a TGI (OVCAR-8 ovarian) of 56100 nM. It also gave a TGI (PC-3 prostate) of 43200 nM, a TGI (MDA-MB-231 breast) of 47900 nM and a TGI (LOX IMVI melanoma) of 42100 nM. For the same molecule, the TGI (CAKI-1 renal) was greater than 100000 nM, the TGI (MDA-MB-435) was 5420 nM and the TGI (M14 melanoma) was 62000 nM. It also gave a TGI (OVCAR-4 ovarian) of 61100 nM, a TGI (RPMI-8226 leukemia) of 18600 nM and a TGI (HT29 colon) of 25600 nM. It also gave a TGI (UO-31 renal) greater than 100000 nM and a TGI (SNB-19 CNS) greater than 100000 nM.
